Test results reported in ChEMBL document CHEMBL4130622, “Retinoic Acid Receptor-Related Orphan Receptor γt (RORγt) Agonists as Potential Small Molecule Therapeutics for Cancer Immunotherapy” (J Med Chem, 2018).

Experiments:
[1] = target: T1, Nuclear receptor ROR-gamma (Homo sapiens) (UniProt P51449); assay: Agonist activity at Gal4-fused DBD RORgammat LBD (unknown origin) expressed in HEK293 cells assessed as coactivator recruitment at <0.5 uM incubated for overnight in presence of ursolic acid by luciferase reporter gene Assay relative to control; type: cell-based
T1 sequence (whole entry): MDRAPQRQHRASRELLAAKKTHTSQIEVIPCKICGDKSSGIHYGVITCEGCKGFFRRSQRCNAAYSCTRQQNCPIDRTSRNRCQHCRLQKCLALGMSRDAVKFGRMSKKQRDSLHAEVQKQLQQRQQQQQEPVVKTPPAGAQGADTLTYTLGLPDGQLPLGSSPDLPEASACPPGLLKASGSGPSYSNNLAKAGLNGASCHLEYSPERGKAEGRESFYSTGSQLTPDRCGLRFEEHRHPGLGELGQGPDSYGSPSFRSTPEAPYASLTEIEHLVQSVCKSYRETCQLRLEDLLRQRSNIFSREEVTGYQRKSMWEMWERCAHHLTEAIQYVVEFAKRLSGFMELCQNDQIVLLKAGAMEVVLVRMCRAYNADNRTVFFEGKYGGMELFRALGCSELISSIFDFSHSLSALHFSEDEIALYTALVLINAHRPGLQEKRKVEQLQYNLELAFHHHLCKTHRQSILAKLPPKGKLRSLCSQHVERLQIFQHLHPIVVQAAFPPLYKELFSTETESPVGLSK

[2] = target: T1, Nuclear receptor ROR-gamma (Homo sapiens); assay: Agonist activity at His tagged human RORgammat LBD (unknown origin) expressed in baculovirus infected sf9 cells assessed as biotinylated-LXXLL peptide coactivator recruitment at <0.5 uM incubated for overnight by TR-FRET Assay relative to control
[3] = target: T2, Nuclear receptor ROR-gamma (Homo sapiens, UniProt P51449); assay: Agonist activity at 6xHis tagged human RORgammat LBD (262 to 507 residues) expressed in Escherichia coli BL21 (DE3) assessed as biotinylated SRC1-2 peptide coactivator recruitment by AlphaScreen assay
T2 sequence (P51449 whole entry): T1 sequence (whole entry)

[4] = target: T2, Nuclear receptor ROR-gamma; assay: Agonist activity at Gal4-fused RORgammat DNA binding domain (unknown origin) expressed in 293T cells assessed as SRC1 coactivator recruitment in presence of ursolic acid by TR-FRET assay; type: cell-based
[5] = target: T2, Nuclear receptor ROR-gamma; assay: Agonist activity at Gal4-fused DBD RORgammat LBD (unknown origin) expressed in HEK293 cells assessed as coactivator recruitment incubated for overnight in presence of ursolic acid by luciferase reporter gene Assay; type: cell-based
[6] = target: T2, Nuclear receptor ROR-gamma; assay: Agonist activity at His tagged RORgammat LBD (unknown origin) expressed in baculovirus infected sf9 cells assessed as biotinylated-LXXLL peptide coactivator recruitment incubated for overnight by TR-FRET Assay

| Compound | Activity [1] [%] | Activity [2] [%] | EC50 [3] [nM] | also measured |
| --- | --- | --- | --- | --- |
| CC(C)CCC[C@@H](C)[C@H]1CC[C@H]2[C@@H]3CC=C4C[C@@H](O)CC[C@]4(C)[C@H]3CC[C@]12C [CHOLESTEROL] | – | – | 20 | – |
| CC(C)CCC[C@@](C)(O)[C@H]1CC[C@H]2[C@@H]3CC=C4C[C@@H](O)CC[C@]4(C)[C@H]3CC[C@@]21C | – | – | 20 to 40 | – |
| CC(C)=CCC[C@@H](C)[C@H]1CC[C@H]2[C@@H]3CC=C4C[C@@H](O)CC[C@]4(C)[C@H]3CC[C@]12C [DESMOSTEROL] | – | – | – | EC50 [4]: 80 nM |
| CC(C)=CCC[C@@H](C)[C@H]1CC[C@H]2C3=C(CC[C@]12C)[C@@]1(C)CC[C@H](O)C[C@@H]1CC3 | – | – | – | EC50 [4]: 110 nM |
| C[C@H]1CN(S(=O)(=O)c2cccc(C(F)(F)F)c2)c2nc(COc3c(F)cccc3Cl)ccc2O1 | – | – | – | EC50 [5]: < 500 nM; EC50 [6]: < 500 nM |
| CC(C)CC[C@@H](O)[C@@H](C)[C@H]1CC[C@H]2[C@@H]3CC=C4C[C@@H](O)CC[C@]4(C)[C@H]3CC[C@]12C [22(R)-HYDROXYCHOLESTEROL] | – | – | 20 to 40 | – |

More lines, main results first:

| Activity [1] [%] | Activity [2] [%] | Compound | EC50 [3] [nM] | also measured |
| --- | --- | --- | --- | --- |
| > 200 | > 200 | C/C(=C\c1ccc2c(c1)N(S(=O)(=O)c1cccc(C(F)(F)F)c1)C[C@H](CCc1nn[nH]n1)O2)c1c(F)cccc1Cl | – | – |
| > 200 | > 200 | CCN(c1cccc(OCc2c(Cl)cccc2Cl)c1)S(=O)(=O)c1cccc(C(F)(F)F)c1 | – | – |
| > 200 | > 200 | COc1c(Cl)cccc1-c1ccc2c(c1)N(S(=O)(=O)c1cccc(C(F)(F)F)c1)C[C@H](CCC(=O)O)O2 | – | – |
| > 200 | > 200 | O=C(O)C1Cc2ccc(OCc3c(F)cccc3Cl)cc2N(S(=O)(=O)c2cccc(C(F)(F)F)c2)C1 (stereo not given) | – | – |
